From ChEMBL document CHEMBL4811238, “Identification of N-phenyl-2-(phenylsulfonyl)acetamides/propanamides as new SLC-0111 analogues: Synthesis and evaluation of the carbonic anhydrase inhibitory activities” (Eur J Med Chem, 2021)
The source made the active and inactive calls. No cut-off for these calls is given here.

How the values were obtained:
[1] = target: Carbonic anhydrase 1 (Homo sapiens, UniProt P00915); assay: Inhibition of recombinant human CA1 pre-incubated for 15 mins measured by phenol red dye based stopped flow CO2 hydration assay
[2] = target: Carbonic anhydrase 9 (Homo sapiens, UniProt Q16790)
Description: Inhibition of recombinant human CA9 pre-incubated for 15 mins measured by phenol red dye based stopped flow CO2 hydration assay

[3] = tested on: HCT-116; assay: Antiproliferative activity against human HCT-116 cells after 48 hrs under hypoxic condition by MTT assay; format: functional, cell-based; conditions: HCT-116, 48 h
[4] = tested on: MCF7; assay: Antiproliferative activity against human MCF7 cells after 48 hrs under hypoxic condition by MTT assay; format: functional, cell-based; conditions: MCF7, 48 h
[5] = target: Carbonic anhydrase 12 (Homo sapiens, UniProt O43570); assay: Inhibition of recombinant human CA12 pre-incubated for 15 mins measured by phenol red dye based stopped flow CO2 hydration assay
[6] = target: Carbonic anhydrase 2 (Homo sapiens, UniProt P00918)
Description: Inhibition of recombinant human CA2 pre-incubated for 15 mins measured by phenol red dye based stopped flow CO2 hydration assay

[7] = tested on: HCT-116; assay: Induction of cell cycle arrest in human HCT116 cells assessed as cell accumulation at sub-G1 phase at IC50 concentration after 24 hrs by propidium iodide staining based flow cytometry analysis; format: functional
[8] = tested on: HCT-116; assay: Induction of cell cycle arrest in human HCT116 cells assessed as cell accumulation at S phase at IC50 concentration after 24 hrs by propidium iodide staining based flow cytometry analysis; format: functional
[9] = tested on: HCT-116; assay: Induction of apoptosis in human HCT116 cells assessed as early apoptotic cells after 24 hrs by Annexin-V-FITC/PI-staining based flow cytometry (reference value: 0.59%); format: functional
[10] = tested on: HCT-116; assay: Induction of apoptosis in human HCT116 cells assessed as late apoptotic cells after 24 hrs by Annexin-V-FITC/PI-staining based flow cytometry (reference value: 0.22%); format: functional
[11] = tested on: HCT-116; assay: Induction of apoptosis in human HCT116 cells assessed as necrotic cells after 24 hrs by Annexin-V-FITC/PI-staining based flow cytometry (reference value: 1.01%); format: functional

Chain of Carbonic anhydrase 1 (P00915 whole entry): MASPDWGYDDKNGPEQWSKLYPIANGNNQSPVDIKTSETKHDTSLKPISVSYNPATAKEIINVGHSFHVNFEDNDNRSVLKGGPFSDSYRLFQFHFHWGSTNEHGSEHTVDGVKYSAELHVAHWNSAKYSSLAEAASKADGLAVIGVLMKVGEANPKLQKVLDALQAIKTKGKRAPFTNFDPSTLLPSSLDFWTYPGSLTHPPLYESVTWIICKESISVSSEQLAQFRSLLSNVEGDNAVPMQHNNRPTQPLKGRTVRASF
Chain of Carbonic anhydrase 12 (O43570 whole entry): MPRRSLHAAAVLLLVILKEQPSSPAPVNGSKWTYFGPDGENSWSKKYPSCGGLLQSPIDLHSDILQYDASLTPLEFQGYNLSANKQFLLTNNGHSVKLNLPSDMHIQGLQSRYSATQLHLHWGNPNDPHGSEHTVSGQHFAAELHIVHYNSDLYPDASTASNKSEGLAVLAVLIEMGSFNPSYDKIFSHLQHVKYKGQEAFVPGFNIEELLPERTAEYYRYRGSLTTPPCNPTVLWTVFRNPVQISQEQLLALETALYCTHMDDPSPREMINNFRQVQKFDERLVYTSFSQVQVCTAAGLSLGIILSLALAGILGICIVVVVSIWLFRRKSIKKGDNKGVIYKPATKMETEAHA

Structure (SMILES) | Ki [1] | Ki [2] | other results
O=C(CS(=O)(=O)c1ccccc1)Nc1ccc(C(=O)O)cc1 | > 100 µM | 0.93 µM | IC50 [3]: 11.6 µM; IC50 [4]: 5.29 µM
NS(=O)(=O)c1ccc(NC(=O)CS(=O)(=O)c2ccccc2)cc1 |  | 0.0227 µM | 
CCOC(=O)c1ccc(NC(=O)CS(=O)(=O)c2ccc(C)cc2)cc1 | > 100 µM | 29.5 µM | Ki [5]: > 100 µM
Cc1ccc(S(=O)(=O)CC(=O)Nc2ccc([N+](=O)[O-])cc2)cc1 | > 100 µM | > 100 µM | Ki [5]: > 100 µM; Ki [6]: > 100 µM
Cc1ccc(S(=O)(=O)C(C)C(=O)Nc2ccc(S(N)(=O)=O)cc2)cc1 (centres undefined) |  | 0.0298 µM | 
CC(=O)c1ccc(NC(=O)CS(=O)(=O)c2ccc(C)cc2)cc1 | > 100 µM | > 100 µM | Ki [5]: > 100 µM; Ki [6]: > 100 µM
Cc1ccc(S(=O)(=O)CC(=O)Nc2ccc(C(=O)O)cc2)cc1 |  | 0.72 µM | IC50 [3]: 2.23 µM; IC50 [4]: 3.41 µM
Cc1ccc(S(=O)(=O)CCC(=O)Nc2ccc(S(N)(=O)=O)cc2)cc1 |  | 0.0043 µM | IC50 [3]: 0.57 µM; IC50 [4]: 0.67 µM; Activity [7]: Active; Activity [8]: Active; Activity [9]: 0.91%; Activity [10]: 21.45%; Activity [11]: 9.63%
NS(=O)(=O)c1ccc(NC(=O)CCS(=O)(=O)c2ccccc2)cc1 |  | 0.0461 µM | 
Cc1ccc(S(=O)(=O)CC(=O)Nc2ccc(S(N)(=O)=O)cc2)cc1 |  | 0.0159 µM | 
CCOC(=O)c1ccc(NC(=O)CS(=O)(=O)c2ccccc2)cc1 | > 100 µM | 17.2 µM | Ki [6]: > 100 µM
CC(C(=O)Nc1ccc(S(N)(=O)=O)cc1)S(=O)(=O)c1ccccc1 (centres undefined) |  | 0.0065 µM | 
